In PMC11642981, “Bioguided Identification of Polymethoxyflavones as Novel Vascular CaV1.2 Channel Blockers from Citrus Peel” (Molecules, 2024):
Where two headings read alike, the source gives them in different places.

Assays:
Format in all cases: cell-based
[1] = target: T1, CaV1.2 channel (α1C subunit) (Rattus norvegicus, UniProt P22002); assay: whole-cell patch-clamp, complete block of IBa1.[…] at […]
T1 construct: gene Cacna1c; native channel in freshly isolated rat tail artery myocytes

[2] = target: T1, CaV1.2 channel (α1C subunit); assay: whole-cell patch-clamp, Ba2+ current (IBa1.[…]); conditions: read-out: % reduction in current amplitude at 100 μM
[3] = target: T1, CaV1.2 channel (α1C subunit); assay: whole-cell patch-clamp, Ba2+ current (IBa1.[…])

T1 sequence (P22002 whole entry): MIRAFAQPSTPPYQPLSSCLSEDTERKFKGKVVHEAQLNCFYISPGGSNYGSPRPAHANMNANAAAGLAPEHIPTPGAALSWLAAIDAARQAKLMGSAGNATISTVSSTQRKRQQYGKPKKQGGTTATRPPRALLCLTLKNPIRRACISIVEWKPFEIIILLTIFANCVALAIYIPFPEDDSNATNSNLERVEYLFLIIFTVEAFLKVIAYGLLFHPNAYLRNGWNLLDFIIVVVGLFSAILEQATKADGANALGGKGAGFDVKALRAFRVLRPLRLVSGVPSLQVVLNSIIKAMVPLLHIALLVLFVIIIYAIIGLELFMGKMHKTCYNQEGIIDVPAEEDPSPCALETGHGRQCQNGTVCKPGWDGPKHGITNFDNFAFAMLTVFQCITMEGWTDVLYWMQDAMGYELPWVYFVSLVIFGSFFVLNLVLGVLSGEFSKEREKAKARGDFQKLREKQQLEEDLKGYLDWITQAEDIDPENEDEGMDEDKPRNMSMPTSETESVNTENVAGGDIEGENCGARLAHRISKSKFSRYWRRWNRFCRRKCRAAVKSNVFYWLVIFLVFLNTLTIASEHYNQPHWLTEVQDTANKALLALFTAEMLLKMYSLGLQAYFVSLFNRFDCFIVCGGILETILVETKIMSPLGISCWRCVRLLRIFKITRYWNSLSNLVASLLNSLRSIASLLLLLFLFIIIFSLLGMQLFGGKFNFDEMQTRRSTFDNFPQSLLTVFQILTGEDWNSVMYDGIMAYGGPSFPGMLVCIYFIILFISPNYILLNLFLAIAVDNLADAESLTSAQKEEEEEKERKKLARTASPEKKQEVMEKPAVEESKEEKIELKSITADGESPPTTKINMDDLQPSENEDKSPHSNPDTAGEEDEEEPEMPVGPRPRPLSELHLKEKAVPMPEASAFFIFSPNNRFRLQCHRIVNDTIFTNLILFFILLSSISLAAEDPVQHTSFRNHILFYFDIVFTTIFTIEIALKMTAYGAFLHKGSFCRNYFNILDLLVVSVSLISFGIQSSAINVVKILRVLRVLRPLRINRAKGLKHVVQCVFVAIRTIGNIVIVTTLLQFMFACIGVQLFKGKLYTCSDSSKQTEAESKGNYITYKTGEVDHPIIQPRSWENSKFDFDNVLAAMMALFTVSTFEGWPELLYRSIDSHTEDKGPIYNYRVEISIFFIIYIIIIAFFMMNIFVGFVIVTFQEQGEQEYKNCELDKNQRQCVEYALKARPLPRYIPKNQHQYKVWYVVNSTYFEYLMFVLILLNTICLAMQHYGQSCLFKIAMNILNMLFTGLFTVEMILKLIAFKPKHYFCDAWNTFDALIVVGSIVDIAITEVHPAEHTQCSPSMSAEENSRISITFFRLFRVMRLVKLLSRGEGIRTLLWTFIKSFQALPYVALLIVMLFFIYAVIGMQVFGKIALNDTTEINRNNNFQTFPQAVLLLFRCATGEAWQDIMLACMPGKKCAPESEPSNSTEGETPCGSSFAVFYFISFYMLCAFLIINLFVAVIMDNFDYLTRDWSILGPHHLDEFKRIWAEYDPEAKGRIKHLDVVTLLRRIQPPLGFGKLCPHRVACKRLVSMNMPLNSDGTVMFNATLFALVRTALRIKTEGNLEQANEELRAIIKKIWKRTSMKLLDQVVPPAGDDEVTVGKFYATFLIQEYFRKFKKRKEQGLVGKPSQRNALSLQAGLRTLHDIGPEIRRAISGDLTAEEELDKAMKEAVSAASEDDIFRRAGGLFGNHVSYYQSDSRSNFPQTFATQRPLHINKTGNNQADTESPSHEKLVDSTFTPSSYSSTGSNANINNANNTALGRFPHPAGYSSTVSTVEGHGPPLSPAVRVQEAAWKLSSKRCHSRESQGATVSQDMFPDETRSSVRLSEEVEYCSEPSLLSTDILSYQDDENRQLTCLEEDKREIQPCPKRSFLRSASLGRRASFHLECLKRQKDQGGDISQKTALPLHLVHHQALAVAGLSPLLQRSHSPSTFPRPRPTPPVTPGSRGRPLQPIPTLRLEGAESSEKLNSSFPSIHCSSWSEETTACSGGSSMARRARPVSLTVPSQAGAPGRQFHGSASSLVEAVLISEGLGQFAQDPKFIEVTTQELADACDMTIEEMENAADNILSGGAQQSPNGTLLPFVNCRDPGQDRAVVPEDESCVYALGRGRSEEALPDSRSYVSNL

COC(=O)C1=C(C)NC(C)=C(C(=O)OC)C1c1ccccc1[N+](=O)[O-] [nifedipine]
whole-cell patch-clamp, complete block of IBa1.2 at 10 μM [1]: 10 µM (completely blocked IBa1.2)

COc1ccc(-c2cc(=O)c3c(OC)c(OC)c(OC)c(OC)c3o2)cc1OC [nobiletin]
inhibition at 100 µM [2]: 50%

COc1ccc(-c2cc(=O)c3c(OC)c(OC)c(OC)cc3o2)cc1 [scutellarein tetramethyl ether]
IC50 [3]: ~33.1 µM

COc1ccc(-c2cc(=O)c3c(OC)c(OC)c(OC)cc3o2)cc1OC [sinensetin]
inhibition at 100 µM [2]: 50%

COc1ccc(-c2cc(=O)c3c(OC)c(OC)c(OC)c(OC)c3o2)cc1 [tangeretin]
IC50 ([3]; read-out: IC50 (converted)): ~66.1 µM
